From patent US8252294B2, “Methods of screening for compounds that inhibit the biosynthesis of GPI in malaria parasites” (Eisai R&D Management Co., Ltd., priority 2002, dated 2012)

Key:
[1] = system: opfGWT1-expressing yeast; experiment: Growth inhibition of GWT1-disrupted yeast expressing opfGWT1 (pGAP-opfGWT1), culture turbidity; assay type: cell-based, S. cerevisiae; settings: for culture turbidity at 660 nm: pGAP-opfGWT1 yeast, 30° C., two days
Protocol: (§1) An expression cassette was constructed by inserting the S. cerevisiae GWT1 terminator, and the S. cerevisiae GAPDH promoter and multi-cloning site into the SacI-KpnI site of the single-copy vector pRS316. S. cerevisiae GWT1 and opfGWT1 were inserted into the multi-cloning site to prepare pGAP-ScGWT1 and pGAP-opfGWT1 plasmids, respectively. These plasmids were introduced into the GWT1 disruptant. Serial two-fold dilutions of compound (1) were prepared using YPAD to make the highest final concentration 50 μg/ml. A 50 μl aliquot of the diluted compound was added to each well of a 96-well plate. Overnight cultures of yeast cells comprising each plasmid were diluted 1000-fold and then a 50 μl aliquot of the dilution was added to each well. The plates were incubated at 30° C. for two days, and then culture turbidity was determined at 660 nm (FIG. 2 and Table 1).

[2] = system: ScGWT1-expressing yeast; experiment: Growth inhibition of GWT1-disrupted yeast expressing S. cerevisiae GWT1 (pGAP-ScGWT1), culture turbidity; assay type: cell-based; settings: for culture turbidity at 660 nm: pGAP-ScGWT1 yeast, 30° C., two days
Protocol: as §1

[3] = system: P. falciparum FCR3 strain; experiment: Antimalarial activity in red blood cell culture system (infection rate by Giemsa staining); assay type: cell-based; settings: human red blood cells infected with P. falciparum FCR3, 48 hours, Giemsa staining (FIG. 3)
Protocol: Specifically, a test compound was dissolved in 100% DMSO, diluted with a medium, and an 80 μl aliquot of the dilution was added to each well of a 96-well culture plate. P. falciparum FCR3 strain was pre-cultured in RPMI1640 medium containing 10% human serum at 37° C., and then 20 μl of the cultured cells (containing 10% red blood cells) was added to each well. At this time, 0.47% of red blood cells were infected. After culturing under 5% O2, 5% CO2, and 90% N2 at 37° C. for 48 hours, the malaria parasites were stained using Giemsa staining. The number of protozoan-infected red blood cells was determined in order to estimate infection rate (FIG. 3).

SMILES	inhibition at 25 µg/mL ([1]; Saccharomyces cerevisiae, opfGWT1-expressing yeast, compound at 25 μg/ml) [%]	viability of yeast ([1]; opfGWT1-expressing yeast, compound at 50 μg/ml)	culture turbidity at 660 nm ([1]; compound 6.25 μg/ml)	culture turbidity at 660 nm ([1]; compound 12.5 μg/ml)	culture turbidity at 660 nm ([1]; compound 25 μg/ml)	culture turbidity at 660 nm ([1]; compound 50 μg/ml)	inhibition at 25 µg/mL ([2]; Saccharomyces cerevisiae, ScGWT1-expressing yeast, compound at 25 μg/ml) [%]	viability of yeast ([2]; ScGWT1-expressing yeast, compound at 50 μg/ml)	culture turbidity at 660 nm ([2]; compound 6.25 μg/ml)	culture turbidity at 660 nm ([2]; compound 12.5 μg/ml)	culture turbidity at 660 nm ([2]; compound 25 μg/ml)	culture turbidity at 660 nm ([2]; compound 50 μg/ml)	antimalarial activity (infection rate of red blood cells) [3]
CCCCc1ccc(Cc2nccc3ccccc23)cc1 [compound (1), 1-(4-butylbenzyl) isoquinoline]	~50	completely nonviable	0.6990	0.6910	0.3630	0.0530	~85	completely nonviable	0.7370	0.6670	0.1140	0.0420	–
CCCCc1ccc(Cc2nccc3ccccc23)c(O)c1 [compound (3), 5-butyl-2-(1-isoquinolylmethyl) phenol]	–	–	–	–	–	–	–	–	–	–	–	–	strong antimalarial activity
COc1cccnc1Cc1ccc(Br)cc1F [compound (4), 2-(4-bromo-2-fluorobenzyl)-3-methoxypyridine]	–	–	–	–	–	–	–	–	–	–	–	–	lowest activity
